In US20210361741A1, “NANOPARTICLE FORMULATIONS AND METHODS OF USE FOR ALPHA CONNEXIN C-TERMINAL PEPTIDES” (FIRSTSTRING RESEARCH, INC., priority 2018, published 2021) one finds tumor volume data, which are given here for one compound.

In this assay the test system is U87MG GBM cells. The experiment in a line: Xenograft GBM mouse model. It is filed as in vivo. As to conditions: TMZ alone, 7.5 mg/kg i.p. every other day. The protocol:
Effect of αCT1-NP in a xenograft GBM mouse model. To assess the in vivo safety and efficacy of αCT1-NPs, a mouse xenograft model of GBM was employed U87MG GBM cells were cultured and 1×10^6 cells were mixed with 100 μL of Matrigel® Matrix and subcutaneously injected into the flanks of SCID/beige anesthetized mice using 23 gauge needles. After 8 days, mice were divided into 2 groups: (i) TMZ alone, and (ii) TMZ+αCT1 particles. The treatment regimen was as follows: TMZ (7.5 mg/kg) was administered by intraperitoneal injection with an insulin syringe every other day starting on day 8 for both groups 1 and 2 mice. αCT1 particles were reconstituted in 1×PBS from −80° C. storage and 100 uL aliquots were prepared and stored at −20° C. The concentration of αCT1 delivered in 1 dose of particles (100 uL) was approximately 8 μM at 1.2 mg particles/kg of mouse body weight. αCT1 particles were delivered at the tumor growth site every other day starting on day 10 for group 2 mice using insulin syringes. Group 2 mice received a total of 6 injections of particles during the course of treatment. This treatment regimen continued for 13 days. Tumor sizes were measured every other day using a caliper. Tumor volume was calculated ((length×width2)/2).

For the compound `Cn1nnc2c(C(N)=O)ncn2c1=O` [TMZ, temozolomide], the tumor volume result was “no effect”.
